Legend:
[1] = tested on: human estrogen receptor (hER); conditions: cited from earlier work
[2] = Plasma and urinary profiles of isoflavones after acute and chronic administration of isoflavone tablets (Promensil composition), HPLC
Protocol: The plasma and urinary profiles of isoflavones after acute and chronic administration of […] of isoflavones (genistein […], daidzein 0.5 mg, biochanin […], and formononetin 14 mg) in fourteen subjects was analysed. The composition corresponds to the Promensil product (Registered Trade Mark, Novogen Research Pty Ltd, Australia). Venous plasma and urine were collected at intervals for 24 h after which subjects commenced taking two tablets each day for two weeks and repeated plasma samples and urine were collected for a 48 h period after the last does. Plasma and urine isoflavones were assayed by HPLC.

cancer = conditions: cited from earlier work

Compound | binding affinity for the hER compared to daidzein [1] | estrogenic potency relative to daidzein [1] | detectability in plasma and urine ([2]; in vivo) | plasma concentrations relative to the methylated precursors ([2]; in vivo) | anti-cancer actions (cancer) | plasma concentrations relative to the methylated precursors ([2]; after acute dosing of the isoflavone tablets)
COc1ccc(-c2coc3cc(O)cc(O)c3c2=O)cc1 [biochanin] | lower binding affinity | about the same estrogenic potency as daidzein | remained detectable in both plasma and urine at all times | – | – | –
O=c1c(-c2ccc(O)cc2)coc2cc(O)ccc12 [daidzein] | – | – | – | much higher concentrations than their methylated precursors | virtually none | –
COc1ccc(-c2coc3cc(O)ccc3c2=O)cc1 [formononetin] | – | – | remained detectable in both plasma and urine at all times | – | – | –
O=c1c(-c2ccc(O)cc2)coc2cc(O)cc(O)c12 [genistein] | – | approximately ten fold more estrogenic than daidzein | – | – | potent anti-cancer actions | much higher concentrations than their methylated precursors

Source: US6599536B1, “Therapy of estrogen-associated disorders” (Novogen Research Pty Ltd, priority 1998, dated 2003)
